ChEMBL document CHEMBL1201862, “PubChem BioAssay data set” (2004)
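Test compounds were applied to cells in 96-well plates for 48 hours at 5 doses. GI50 = concentration required for 50% inhibition of growth.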 Activity calls are given as the source filed them. No stated cut-off is given here; in the data, active = GI50 up to about 1.1 µM and inactive = higher.

Legend:
Assay in all cases: inhibition of tumour cell growth, NCI panel, 48 h
786-0 = tested on: 786-0
A498 = tested on: A498
A549 = tested on: A549
ACHN = tested on: ACHN
BT-549 = tested on: BT-549
CAKI-1 = tested on: CAKI-1
CCRF-CEM = tested on: CCRF-CEM
COLO 205 = tested on: COLO 205
DU-145 = tested on: DU-145
EKVX = tested on: EKVX
HCT-116 = tested on: HCT-116
HCT-15 = tested on: HCT-15
HL-60 = tested on: HL-60
HOP-62 = tested on: HOP-62
HOP-92 = tested on: HOP-92
HT-29 = tested on: HT-29
Hs-578T = tested on: Hs-578T
IGROV-1 = tested on: IGROV-1
K562 = tested on: K562
KM12 = tested on: KM12
LOX IMVI = tested on: LOX IMVI
M14 = tested on: M14
MDA-MB-231 = tested on: MDA-MB-231
MDA-MB-435 = tested on: MDA-MB-435
MDA-N = tested on: MDA-N
MOLT-4 = tested on: MOLT-4
Malme-3M = tested on: Malme-3M
NCI-H226 = tested on: NCI-H226
NCI-H23 = tested on: NCI-H23
NCI-H460 = tested on: NCI-H460
NCI-H522 = tested on: NCI-H522
NCI/ADR-RES = tested on: NCI/ADR-RES
OVCAR-3 = tested on: OVCAR-3
OVCAR-4 = tested on: OVCAR-4
OVCAR-5 = tested on: OVCAR-5
OVCAR-8 = tested on: OVCAR-8
PC-3 = tested on: PC-3
RPMI-8226 = tested on: RPMI-8226
RXF 393 = tested on: RXF 393
SF-268 = tested on: SF-268
SF-295 = tested on: SF-295
SF-539 = tested on: SF-539
SK-MEL-28 = tested on: SK-MEL-28
SK-MEL-2 = tested on: SK-MEL-2
SK-MEL-5 = tested on: SK-MEL-5
SK-OV-3 = tested on: SK-OV-3
SN12C = tested on: SN12C
SNB-19 = tested on: SNB-19
SR = tested on: SR
SW-620 = tested on: SW-620
T47D = tested on: T47D
TK-10 = tested on: TK-10
U-251 = tested on: U-251
UACC-257 = tested on: UACC-257
UACC-62 = tested on: UACC-62
UO-31 = tested on: UO-31
HCC 2998 = tested on: HCC 2998
MCF7 = tested on: MCF7
SNB-75 = tested on: SNB-75

c1ccc(-c2sc(-c3ccccc3)c3c2C2CCC3C2)cc1
GI50 (786-0): 45.9 µM (inactive) | GI50 (A498): 53.3 µM (inactive) | GI50 (A549): 28.6 µM (inactive) | GI50 (ACHN): 36.1 µM (inactive) | GI50 (BT-549): 40.7 µM (inactive) | GI50 (CAKI-1): 49.9 µM (inactive) | GI50 (CCRF-CEM): 43.9 µM (inactive) | GI50 (COLO 205): 22.9 µM (inactive) | GI50 (DU-145): > 100 µM (inactive) | GI50 (EKVX): 42.1 µM (inactive) | GI50 (HCT-116): 27 µM (inactive) | GI50 (HCT-15): 31.6 µM | GI50 (HL-60): 37.5 µM (inactive) | GI50 (HOP-62): 38.2 µM (inactive) | GI50 (HOP-92): 12.6 µM (inactive) | GI50 (HT-29): 18.6 µM (inactive) | GI50 (Hs-578T): 20 µM (inactive) | GI50 (IGROV-1): 47.1 µM (inactive) | GI50 (K562): 35.2 µM (inactive) | GI50 (KM12): 30.6 µM (inactive) | GI50 (LOX IMVI): 28.8 µM (inactive) | GI50 (M14): 35.3 µM (inactive) | GI50 (MDA-MB-231): 27.6 µM (inactive) | GI50 (MDA-MB-435): 38.6 µM (inactive) | GI50 (MDA-N): 43 µM (inactive) | GI50 (MOLT-4): 52.4 µM (inactive) | GI50 (Malme-3M): 31.6 µM (inactive) | GI50 (NCI-H226): 32.5 µM (inactive) | GI50 (NCI-H23): 33.5 µM (inactive) | GI50 (NCI-H460): 28.9 µM (inactive) | GI50 (NCI-H522): 23.1 µM (inactive) | GI50 (NCI/ADR-RES): 29.8 µM (inactive) | GI50 (OVCAR-3): 30.6 µM (inactive) | GI50 (OVCAR-4): > 100 µM (inactive) | GI50 (OVCAR-5): 53.8 µM (inactive) | GI50 (OVCAR-8): 32.9 µM (inactive) | GI50 (PC-3): 25.5 µM (inactive) | GI50 (RPMI-8226): 16.1 µM (inactive) | GI50 (RXF 393): 24.3 µM (inactive) | GI50 (SF-268): 53.3 µM (inactive) | GI50 (SF-295): 35.1 µM (inactive) | GI50 (SF-539): 26 µM (inactive) | GI50 (SK-MEL-28): 49 µM (inactive) | GI50 (SK-MEL-2): 19.2 µM (inactive) | GI50 (SK-MEL-5): 20 µM (inactive) | GI50 (SK-OV-3): 64 µM (inactive) | GI50 (SN12C): 45.3 µM (inactive) | GI50 (SNB-19): > 100 µM (inactive) | GI50 (SR): 17.4 µM (inactive) | GI50 (SW-620): 43.3 µM (inactive) | GI50 (T47D): 38.7 µM (inactive) | GI50 (TK-10): 27 µM (inactive) | GI50 (U-251): 38.2 µM (inactive) | GI50 (UACC-257): 40.3 µM (inactive) | GI50 (UACC-62): 33.8 µM (inactive) | GI50 (UO-31): 16 µM (inactive)

O=C(/C=C(\S/C=C(/c1ccccc1)N1CCn2c(C(=O)c3ccccc3)c(C(=O)c3ccccc3)c(C(=O)c3ccccc3)c21)C(=O)c1ccccc1)c1ccccc1
GI50 (786-0): > 10 µM (inactive) | GI50 (A549): > 10 µM (inactive) | GI50 (ACHN): > 10 µM (inactive) | GI50 (BT-549): > 10 µM (inactive) | GI50 (CAKI-1): > 10 µM (inactive) | GI50 (CCRF-CEM): > 10 µM (inactive) | GI50 (COLO 205): > 10 µM (inactive) | GI50 (DU-145): > 10 µM (inactive) | GI50 (EKVX): > 10 µM (inactive) | GI50 (HCC 2998): > 10 µM (inactive) | GI50 (HCT-116): > 10 µM (inactive) | GI50 (HCT-15): > 10 µM | GI50 (HL-60): > 10 µM (inactive) | GI50 (HOP-62): > 10 µM (inactive) | GI50 (HOP-92): > 10 µM (inactive) | GI50 (HT-29): > 10 µM (inactive) | GI50 (Hs-578T): > 10 µM (inactive) | GI50 (IGROV-1): > 10 µM (inactive) | GI50 (K562): > 10 µM (inactive) | GI50 (KM12): > 10 µM (inactive) | GI50 (M14): > 10 µM (inactive) | GI50 (MCF7): > 10 µM (inactive) | GI50 (MDA-MB-231): > 10 µM (inactive) | GI50 (MDA-MB-435): > 10 µM (inactive) | GI50 (MDA-N): > 10 µM (inactive) | GI50 (MOLT-4): > 10 µM (inactive) | GI50 (Malme-3M): > 10 µM (inactive) | GI50 (NCI-H23): > 10 µM (inactive) | GI50 (NCI-H460): > 10 µM (inactive) | GI50 (NCI-H522): > 10 µM (inactive) | GI50 (NCI/ADR-RES): > 10 µM (inactive) | GI50 (OVCAR-3): > 10 µM (inactive) | GI50 (OVCAR-4): > 10 µM (inactive) | GI50 (OVCAR-5): > 10 µM (inactive) | GI50 (OVCAR-8): > 10 µM (inactive) | GI50 (PC-3): > 10 µM (inactive) | GI50 (RPMI-8226): > 10 µM (inactive) | GI50 (SF-268): > 10 µM (inactive) | GI50 (SF-295): > 10 µM (inactive) | GI50 (SF-539): > 10 µM (inactive) | GI50 (SK-MEL-28): > 10 µM (inactive) | GI50 (SK-MEL-2): > 10 µM (inactive) | GI50 (SK-MEL-5): > 10 µM (inactive) | GI50 (SK-OV-3): > 10 µM (inactive) | GI50 (SN12C): > 10 µM (inactive) | GI50 (SNB-19): > 10 µM (inactive) | GI50 (SNB-75): > 10 µM (inactive) | GI50 (SW-620): > 10 µM (inactive) | GI50 (T47D): > 10 µM (inactive) | GI50 (TK-10): > 10 µM (inactive) | GI50 (U-251): > 10 µM (inactive) | GI50 (UACC-257): > 10 µM (inactive) | GI50 (UACC-62): > 10 µM (inactive)
